Experimental data from patent US20230167093A1, “COMPOUNDS AND METHODS FOR MODULATING SPLICING” (REMIX THERAPEUTICS INC., priority 2020, published 2023).

What was measured:
Assay type in all cases: cell-based
[1] = system: Target C CJ mRNA; assay: Gene panel canonical junction qPCR assay, Target C; conditions: protocol as above, concentration having 50% response in CJ decrease, read-out: Target C IC50 (decrease in CJ mRNA levels)
Method: (§1) Compounds described herein were used to modulate RNA transcript abundance in cells. The expression of a target mRNA was measured by detecting the formation of an exon-exon junction in the canonical transcript (CJ). A compound mediated exon-inclusion event was detected by observing an increase in formation of a new junction with an alternative exon (AJ). Real-time qPCR assays were used to detect these splicing switches and interrogate the potency of various compounds towards different target genes. A high-throughput real time quantitative PCR (RT-qPCR) assay was developed to measure these two isoforms of the mRNA (CJ and AJ) for an exemplary gene, HTT, together with a control housekeeping gene, GAPDH or GUSB or PPIA, used for normalization. Briefly, the A673 or K562 cell line was treated with various compounds described herein (e.g., compounds of Formula (I) or (II)). After treatment, the levels of the HTT mRNA targets were determined from each sample of cell lysate by cDNA synthesis followed by qPCR.
(§2) The A673 cell line was cultured in DMEM with 10% FBS. Cells were diluted with full growth media and plated in a 96-well plate (15,000 cells in 100 ul media per well). The plate was incubated at 37° C. with 5% CO2 for 24 hours to allow cells to adhere. An 11-point 3-fold serial dilution of the compounds was made in DMSO then diluted in media in an intermediate plate. Compounds were transferred from the intermediate plate to the cell plate with the top dose at a final concentration of 10 uM in the well. Final DMSO concentration was kept at or below 0.25%. The cell plate was returned to the incubator at 37° C. with 5% CO2 for an additional 24 hours.
(§3) The K562 cell line was cultured in IMDM with 10% FBS. For K562, cells were diluted with full growth media and plated in either a 96-well plate (50,000 cells in 50 uL media per well) or a 384-well plate (8,000-40,000 cells in 45 uL media per well). An 11-point 3-fold serial dilution of the compounds were made in DMSO then diluted in media in an intermediate plate. Compound was transferred from the intermediate plate to the cell plate with the top dose at a final concentration of 10 uM in the well. Final DMSO concentration was kept at or below 0.25%. Final volume was 100 uL for 96-well plate and 50 uL for 384-well plate. The cell plate was then placed in an incubator at 37° C. with 5% CO2 for 24 hours.
(§4) The cells were then gently washed with 50 uL-100 uL cold PBS before proceeding to addition of lysis buffer. 30 uL-50 uL of room temperature lysis buffer with DNAse I (and optionally RNAsin) was added to each well. Cells were shaken/mixed thoroughly at room temperature for 5-10 minutes for lysis to take place and then 3 uL-5 uL of room temperature stop solution was added and wells were shaken/mixed again. After 2-5 minutes, the cell lysate plate was transferred to ice for RT-qPCR reaction setup. The lysates could also be frozen at −80° C. for later use.
(§5) In some cases, a direct lysis buffer was used. An appropriate volume of 3× lysis buffer (10 mM Tris, 150 mM NaCl, 1.5%-2.5% Igepal and 0.1-1 U/uL RNAsin, pH 7.4) was directly added to either K562 or A673 cells in media and mixed by pipetting 3 times. The plates were then incubated at room temperature with shaking/rocking for 20-50 minutes to allow for lysis to take place. After this time, the cell lysate plate was transferred to ice to set up for the RT-qPCR reactions. The lysates could also be frozen at −80° C. for later use.
(§6) To set up 10 uL RT-qPCR reactions, cell lysates were transferred to 384-well qPCR plates containing the master mix according to the table below. The plates were sealed, gently vortexed, and spun down before the run. The volumes were adjusted accordingly in some instances where the reaction was carried in 20 uL. The table below summarizes the components of the RT-qPCR reactions:
(§7) The RT-qPCR reaction was performed using a QuantStudio (ThermoFisher) under the following fast cycling conditions. […]

[2] = system: HTT CJ mRNA; assay: Gene panel canonical junction qPCR assay, HTT; conditions: protocol as above, concentration having 50% response in CJ decrease, read-out: HTT IC50 (decrease in CJ mRNA levels)
Method: as §1, §2, §3, §4, §5, §6, §7

[3] = system: HTT CJ mRNA; assay: RT-qPCR splicing assay, HTT canonical junction (CJ) mRNA decrease; conditions: A673 or K562 cells, 24 hours compound treatment, top dose 10 uM; concentration having 50% response in CJ decrease
Method: as §1, §2, §3, §4, §5, §6, §7

[4] = system: HTT AJ mRNA; assay: RT-qPCR splicing assay, HTT alternative junction (AJ) mRNA increase; conditions: A673 or K562 cells, 24 hours compound treatment, top dose 10 uM; concentration having 50% response in AJ increase
Method: as §1, §2, §3, §4, §5, §6, §7

[5] = system: SMN2 CJ mRNA; assay: Gene panel canonical junction qPCR assay, SMN2; conditions: protocol as above, concentration having 50% response in CJ decrease, read-out: SMN2 IC50 (decrease in CJ mRNA levels)
Method: as §1, with “After treatment, the levels of the HTT mRNA targets were determined from each sample of cell lysate by cDNA synthesis followed by qPCR.” left out
as §2, §3, §4, §5, §6
The RT-qPCR reaction was performed using a QuantStudio (ThermoFisher) under the following fast cycling conditions. All samples and standards were analyzed at least in duplicate. […]

SMILES	IC50 [1] [µM]	IC50 [2] [µM]	IC50 [5] [µM]	AC50 [3] [µM]	AC50 [4] [µM]
CN1CCN(c2ccc3ncn(-c4cc(F)c5nn(C)cc5c4)c(=O)c3c2)CC1 [Compound 194, 3-(7-fluoro-2-methyl-2H-indazol-5-yl)-6-(4-methylpiperazin-1-yl)quinazolin-4(3H)-one]	1 to 10	1 to 10	1 to 10	1 to 10	1 to 10
CN1CCC(Nc2ccc3ncn(-c4ccc5nn(C)cc5c4)c(=O)c3c2)CC1 [Compound 171, 3-(2-methyl-2H-indazol-5-yl)-6-((1-methylpiperidin-4-yl)amino)quinazolin-4(3H)-one]	> 10	> 10	> 10	> 10	> 10
Cn1cc2cc(-n3cnc4ccc(N5CCNCC5)cc4c3=O)cc(F)c2n1 [Compound 196, 3-(7-fluoro-2-methyl-2H-indazol-5-yl)-6-(piperazin-1-yl)quinazolin-4(3H)-one]	> 10	> 10	> 10	> 10	> 10
Cn1cc2cc(-n3cnc4ccc(C5=CCNCC5)cc4c3=O)ccc2n1 [Compound 151, 3-(2-methyl-2H-indazol-5-yl)-6-(1,2,3,6-tetrahydropyridin-4-yl)quinazolin-4(3H)-one]		> 10	> 10	> 10	> 10
Cc1cc(-c2ccc3ncn(C4CCN(C)CC4)c(=O)c3c2)cc2cn(C)nc12 [Compound 170, 6-(2,7-dimethyl-2H-indazol-5-yl)-3-(1-methylpiperidin-4-yl)quinazolin-4(3H)-one]	> 10	> 10	> 10	> 10	> 10
Cc1cn2cc(-n3cnc4ccc(N5CCNCC5)cc4c3=O)cc(F)c2n1 [Compound 195, 3-(8-fluoro-2-methylimidazo[1,2-a]pyridin-6-yl)-6-(piperazin-1-yl)quinazolin-4(3H)-one]	> 10	> 10	> 10	> 10	> 10
CN1CCN(c2ccc3ncn(-c4ccc5nn(C)cc5c4)c(=O)c3c2)CC1 [Compound 154, 3-(2-methyl-2H-indazol-5-yl)-6-(4-methylpiperazin-1-yl)quinazolin-4(3H)-one]		> 10	> 10	> 10	> 10
Cc1cn2cc(-n3cnc4ccc(N(C)C5CCNCC5)cc4c3=O)cc(F)c2n1 [Compound 200, 3-(8-fluoro-2-methylimidazo[1,2-a]pyridin-6-yl)-6-(methyl(piperidin-4-yl)amino)quinazolin-4(3H)-one]	> 10	> 10	> 10	> 10	> 10
CN1CCC(N(C)c2ccc3ncn(-c4cc(F)c5nn(C)cc5c4)c(=O)c3c2)CC1 [Compound 199, 3-(7-fluoro-2-methyl-2H-indazol-5-yl)-6-(methyl(1-methylpiperidin-4-yl)amino)quinazolin-4(3H)-one]	> 10	> 10	> 10	> 10	> 10
Cc1cc(-c2ccc3ncn(C4CCNCC4)c(=O)c3c2)cc2cn(C)nc12 [Compound 169, 6-(2,7-dimethyl-2H-indazol-5-yl)-3-(piperidin-4-yl)quinazolin-4(3H)-one]	> 10	> 10	> 10	> 10	> 10
Cn1cc2cc(-n3cnc4ccc(N5CCNCC5)cc4c3=O)ccc2n1 [Compound 155, 3-(2-methyl-2H-indazol-5-yl)-6-(piperazin-1-yl)quinazolin-4(3H)-one]		> 10	> 10	> 10	> 10

Further lines, with some results ahead:

IC50 [1] [µM]	IC50 [2] [µM]	IC50 [5] [µM]	SMILES	AC50 [3] [µM]	AC50 [4] [µM]
> 10	> 10	> 10	Cc1cc(-c2nc3cc(N4CCNCC4)ccc3c(=O)[nH]2)cc2cn(C)nc12 [Compound 213, 2-(2,7-dimethyl-2H-indazol-5-yl)-7-(piperazin-1-yl)quinazolin-4(3H)-one]	> 10	> 10
> 10	> 10	> 10	Cc1cc(-c2ccc3c(=O)[nH]c(N4CCNCC4)nc3c2)cc2cn(C)nc12 [Compound 211, 7-(2,7-dimethyl-2H-indazol-5-yl)-2-(piperazin-1-yl)quinazolin-4(3H)-one]	> 10	> 10
1 to 10	1 to 10	1 to 10	Cc1cn2nc(-n3cnc4ccc(N5CCN(C)CC5)cc4c3=O)cc(C)c2n1 [Compound 202, 3-(2,8-dimethylimidazo[1,2-b]pyridazin-6-yl)-6-(4-methylpiperazin-1-yl)quinazolin-4(3H)-one]	1 to 10	1 to 10
> 10	> 10	> 10	Cc1cn2nc(-n3cnc4ccc(N5CCNCC5)cc4c3=O)cc(C)c2n1 [Compound 201, 3-(2,8-dimethylimidazo[1,2-b]pyridazin-6-yl)-6-(piperazin-1-yl)quinazolin-4(3H)-one]	> 10	> 10
1 to 10	1 to 10	1 to 10	Cc1cc(-c2ccc3c(=O)[nH]c(N4CCN(C)CC4)nc3c2)cc2cn(C)nc12 [Compound 212, 7-(2,7-dimethyl-2H-indazol-5-yl)-2-(4-methylpiperazin-1-yl)quinazolin-4(3H)-one]	1 to 10	1 to 10
> 10	> 10	> 10	Cc1cc(-c2nc3cc(N4CCN(C)CC4)ccc3c(=O)[nH]2)cc2cn(C)nc12 [Compound 214, 2-(2,7-dimethyl-2H-indazol-5-yl)-7-(4-methylpiperazin-1-yl)quinazolin-4(3H)-one]	> 10	> 10
1 to 10	1 to 10	1 to 10	Cc1cn2cc(-n3cnc4ccc(N5CCN(C)CC5)cc4c3=O)cc(F)c2n1 [Compound 197, 3-(8-fluoro-2-methylimidazo[1,2-a]pyridin-6-yl)-6-(4-methylpiperazin-1-yl)quinazolin-4(3H)-one]	1 to 10	1 to 10
